Experiments:
[1] = tested on: Alternaria alternata; assay: Alternaria alternata in vitro cell test; type: cell-based; conditions: 120 h, 5 days incubation, read-out: efficacy (inhibition of fungal growth; no direct activity); for inhibition at 5 ppm: 5 ppm of active ingredient; for inhibition at 20 ppm: 20 ppm of active ingredient
In short: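 A. alternata spores in glucose/peptone/yeast-extract liquid medium were exposed to DMSO-solubilized compound (final DMSO ≤1%). After 5 days incubation, mycelium growth read spectrometrically; inhibition derived from absorbance relative to fungicide-free control wells.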

[2] = tested on: Pseudomonas syringae pv. tomato; assay: Pseudomonas syringae pv. tomato in vitro cell test; type: cell-based; conditions: 20 ppm of active ingredient, 24 h of incubation, read-out: efficacy (inhibition of bacteria growth; no direct activity)
In short: (§1)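 Bacteria from liquid pre-culture diluted to set OD in LB broth and exposed to compounds dissolved in DMSO (final ≤1%). After 24 h, growth read by absorbance; inhibition derived relative to compound-free control wells.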

[3] = tested on: Colletotrichum lindemuthianum; assay: In vivo preventive test on Colletotrichum lindemuthianum (Anthracnose on bean); conditions: Colletotrichum lindemuthianum, 144 h, sprayed 72 hours before inoculation, evaluated 6 days after inoculation, read-out: efficacy; for pest or weed control at 31 ppm: 31 ppm of active ingredient; for pest or weed control at 125 ppm: 125 ppm of active ingredient; for pest or weed control at 500 ppm: 500 ppm of active ingredient
In short: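 Young bean plants were sprayed with compound in acetone/DMSO/Tween diluted in water, then inoculated 72 h later with C. lindemuthianum spores. Incubation was 24 h at 20 °C/100% RH, then 5 days at 20 °C/90% RH. Efficacy scored 6 days post-inoculation: 0% equals solvent-treated control, 100% means no disease.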

[4] = tested on: Uromyces appendiculatus; assay: In vivo preventive test on Uromyces appendiculatus (bean rust); conditions: 240 h, sprayed 72 hours before inoculation, evaluated 10 days after inoculation, read-out: efficacy; for pest or weed control at 500 ppm: 500 ppm of active ingredient; for pest or weed control at 31 ppm: 31 ppm of active ingredient; for pest or weed control at 125 ppm: 125 ppm of active ingredient
In short: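 Young bean plants sprayed with compound in acetone/DMSO/Tween diluted in water, then inoculated 72 h later with spore suspension. Incubated 24 h at 20° C., 100% RH, then 9 days at 20° C., 70-80% RH. Efficacy scored 10 days post-inoculation, 0% = untreated-control level, 100% = no disease.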

[5] = tested on: Colletotrichum lindemuthianum; assay: Colletotrichum lindemuthianum in vitro cell test; type: cell-based; conditions: 144 h, 6 days incubation, read-out: efficacy (inhibition of fungal growth; no direct activity); for inhibition at 5 ppm: 5 ppm of active ingredient; for inhibition at 20 ppm: 20 ppm of active ingredient
In short: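 C. lindemuthianum spore suspension grown in liquid glucose/peptone/yeast-extract medium with compound (final DMSO ≤1%). After 6 days, mycelial growth measured by absorbance; inhibition calculated versus fungicide-free control wells.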

[6] = tested on: Peronospora parasitica; assay: In vivo preventive test on Peronospora parasitica (Crucifer downy mildew) on cabbage; conditions: Hyaloperonospora parasitica, 120 h, sprayed 72 hours before inoculation, evaluated 5 days after inoculation, read-out: efficacy; for pest or weed control at 31 ppm: 31 ppm of active ingredient; for pest or weed control at 125 ppm: 125 ppm of active ingredient; for pest or weed control at 500 ppm: 500 ppm of active ingredient
In short: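 Young cabbage plants were sprayed with compound in aqueous acetone/DMSO/Tween, then inoculated 72 h later with P. parasitica spores and held 5 days at 20 °C, 100% RH. Efficacy scored 5 days post-inoculation: 0% equals solvent-treated controls, 100% means no disease.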

[7] = tested on: Xanthomonas campestris pv. campestris; assay: Xanthomonas campestris pv. campestris in vitro cell test; type: cell-based; conditions: 24 h of incubation, read-out: efficacy (inhibition of bacteria growth; no direct activity); for inhibition at 5 ppm: 5 ppm of active ingredient; for inhibition at 20 ppm: 20 ppm of active ingredient
In short: as §1

[8] = tested on: Xanthomonas campestris pv. campestris; assay: In vivo preventive test on Xanthomonas campestris pv. campestris (black rot on cabbage); conditions: Xanthomonas campestris, sprayed 72 hours before inoculation, evaluated 8 or 10 days after inoculation, read-out: efficacy; for pest or weed control at 31 ppm: 31 ppm of active ingredient; for pest or weed control at 125 ppm: 125 ppm of active ingredient; for pest or weed control at 500 ppm: 500 ppm of active ingredient
In short: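 Young cabbage plants sprayed preventively with compound formulated in acetone/DMSO/Tween and diluted in water, then inoculated 72 h later with a bacterial spray. Kept at 27° C, 95% relative humidity; disease scored after 8 or 10 days as % efficacy versus solvent-treated controls (0% = control, 100% = no disease).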

Structure (SMILES)	inhibition at 5 ppm [1]	inhibition at 20 ppm [1]	inhibition at 20 ppm [2]	pest or weed control at 31 ppm [3]	pest or weed control at 125 ppm [3]	pest or weed control at 500 ppm [3]	pest or weed control at 500 ppm [4]	inhibition at 5 ppm [5]	inhibition at 20 ppm [5]	pest or weed control at 31 ppm [6]	pest or weed control at 125 ppm [6]	pest or weed control at 500 ppm [6]	inhibition at 5 ppm [7]	inhibition at 20 ppm [7]	pest or weed control at 31 ppm [8]	pest or weed control at 125 ppm [8]	pest or weed control at 500 ppm [8]	pest or weed control at 31 ppm [4]	pest or weed control at 125 ppm [4]
COC(=O)CC[C@H](NC(=O)c1sc(Cl)c(Cl)c1C)C(=O)OC [I.122]	≤ 30%	≤ 30%	≤ 30%	≥ 70%	70 to 79%	80 to 89%	90 to 100%	≤ 30%	≤ 30%	90 to 100%	90 to 100%	90 to 100%	≤ 30%	≤ 30%	90 to 100%	90 to 100%	90 to 100%		
Cc1c(C(=O)NC(C(=O)O)C2CC2)sc(Cl)c1Cl (centres unmarked) [I.095]	≤ 30%	≤ 30%	≤ 30%		70 to 79%		90 to 100%	≤ 30%	≤ 30%	80 to 89%	90 to 100%	90 to 100%	≤ 30%	≤ 30%	70 to 79%	90 to 100%	90 to 100%	80 to 89%	90 to 100%
CCOC(=O)C1(NC(=O)c2sc(Cl)c(Cl)c2C)CCC1 [I.047]	≤ 30%	≤ 30%	≤ 30%	90 to 100%	90 to 100%	90 to 100%	90 to 100%	≤ 30%		90 to 100%	90 to 100%	90 to 100%	≤ 30%	≤ 30%		80 to 89%		80 to 89%	90 to 100%
COC(=O)C(NC(=O)c1sc(Cl)c(Cl)c1C)C1CC1 (centres unmarked) [I.081, methyl cyclopropyl{[(4,5-dichloro-3-methyl-2-thienyl)carbonyl]amino}acetate]	≤ 30%	≤ 30%	≤ 30%			80 to 89%	90 to 100%	≤ 30%	≤ 30%	80 to 89%	90 to 100%	90 to 100%	≤ 30%	≤ 30%	80 to 89%	90 to 100%			90 to 100%
COC(=O)C(NC(=O)c1sc(Br)c(Br)c1C)C1CC1 (centres unmarked) [I.032]	≤ 30%	≤ 30%	≤ 30%			70 to 79%	90 to 100%	≤ 30%		80 to 89%	90 to 100%	90 to 100%	≤ 30%		90 to 100%	90 to 100%	90 to 100%	90 to 100%	90 to 100%
CCOC(=O)C(C#N)NC(=O)c1sc(Br)c(Br)c1C (centres unmarked) [I.077]	≤ 30%	≤ 30%	≤ 30%	80 to 89%	80 to 89%	90 to 100%	90 to 100%	≤ 30%	≤ 30%	80 to 89%	90 to 100%	90 to 100%	≤ 30%	≤ 30%	80 to 89%	80 to 89%		70 to 79%	90 to 100%
Cc1c(C(=S)NC2(C(=O)O)CC2)sc(Cl)c1Cl [I.060]	≤ 30%	≤ 30%	≤ 30%		80 to 89%		90 to 100%	≤ 30%	≤ 30%	90 to 100%	90 to 100%	90 to 100%	≤ 30%	≤ 30%		70 to 79%	80 to 89%	90 to 100%	90 to 100%
Cc1c(C(=O)NC(C(=O)O)C2CC2)sc(Br)c1Br (centres unmarked) [I.080, cyclopropyl{[(4,5-dibromo-3-methyl-2-thienyl)carbonyl]amino}acetic acid]	≤ 30%	≤ 30%	≤ 30%			70 to 79%	90 to 100%	≤ 30%	≤ 30%		90 to 100%	90 to 100%	≤ 30%	≤ 30%	70 to 79%	80 to 89%	90 to 100%		
